Data: US20040110745A1, “Therapeutic chroman compounds” (priority 2001, published 2004)

Test system: guinea pigs
Assay: learned helplessness assay for antidepressant/antianxiety activity
Assay type: in vivo
Details: guinea pig
Description: The utility of the compounds for example to treat depression may be shown via a learned helplessness test in guinea pigs, which is used extensively as correlative to antidepressant activity in humans. The learned helplessness test may be carried out as follows: Seventy male Hartley guinea pigs, each weighing about 350-425 gm are fed ad lib, and are housed under a 12-hour light/dark cycle. The procedure consists of two phases: The induction phase and the avoidance training phase. In the induction phase, subjects are placed into standard shuttle cages (20 L×16 W×21 centimeters H) which are fitted with a grid floor. Electrical stimulation (1.25 mA, 10 sec duration) is delivered to the floor of the cage every 90-sec during 1 hour daily sessions. Subjects have no opportunity to escape or to avoid shocks. Induction is conducted for 2 consecutive days.
In avoidance training, testing is also conducted in the shuttle cages, except that the subjects are not returned to the same chamber in which induction had occurred. Additionally, all cages are fitted with a partition with an arch in the center of the cage, through which animals can pass between the left and right halves of the cage. The procedure employed is a standard shuttle avoidance procedure in which a compound, conditioned stimulus (a 10-sec presentation of a tone and turning on of a lamp on the side of the cage that the guinea pig was occupying) serves to indicate presentation of electrical current to the floor of the cage. Shock is presented for a 5 sec period, 5 sec after initiation of the conditioned stimulus. Entry into the opposite side of the shuttle cage via the arched partition prior to shock onset results in the end of the trial (avoidance response). If shock is delivered, entry into the opposite side of the cage results in termination of the shock and CS (escape). Reversal of learned helplessness in the induction subjects correlates to antidepressant activity of the test compound.
Avoidance training, 45-min in duration, is conducted on 2 consecutive days, beginning 48 hr after the final induction session. Seventy subjects are assigned to 1 of 6 groups of 11-12 animals. The groups are as follows:
Groups 2-6 are given induction and avoidance training sessions. Injections are administered immediately following induction sessions and 1 hour prior to avoidance training sessions. A second injection is administered 7-8 hours following the first injection, for a total of 9 injections administered over 5 days. No injections are administered following the final avoidance training session.
Compounds of the present invention may be administered in a volume of 1 mL/kg bwt. Imipramine is dissolved in DI water. The compounds are dissolved in DI water, to which was added a few drops of lactic acid (pH 5.5). […]

| SMILES | activity in the learned helplessness assay |
| --- | --- |
| COc1cc(N2CCN(C)CC2)c2oc(C(=O)Nc3ccc(N4CCOCC4)cc3)cc(=O)c2c1 [Example 31, 6-Methoxy-8-(4-methyl-piperazin-1-yl)-4-oxo-4H-chromene-2-carboxylic acid (4-morpholin-4-yl-phenyl)-amide] | demonstrate activity |
| CCC(=O)N1CCN(c2ccc(NC(=O)c3cc(=O)c4cc(OC)cc(N5CCN(C)CC5)c4o3)cc2)CC1 [Example 44, 6-Methoxy-8-(4-methyl-piperazin-1-yl)-4-oxo-4H-chromene-2-carboxylic acid [4-(4-propionyl-piperazin-1-yl)-phenyl]-amide] | demonstrate activity |
| CCS(=O)(=O)N1CCN(c2ccc(NC(=O)c3cc(=O)c4cc(F)cc(N5CCN(C)CC5)c4o3)cc2)CC1 [Example 71, 6-Fluoro-8-(4-methyl-piperazin-1-yl)-4-oxo-4H-chromene-2-carboxylic acid [4-(4-ethane sulfonyl-piperazin-1-yl)-phenyl]-amide] | demonstrate activity |
| CCC(=O)N1CCN(c2ccc(NC(=O)c3cc(=O)c4cc(F)cc(N5CCN(C)CC5)c4o3)cc2)CC1 [Example 72, 6-flouro-8-(4-methyl-piperazin-1-yl)-4-oxo-4H-chromene-2-carboxylic acid [4-(4-propionyl-piperazin-1-yl)-phenyl]-amide] | demonstrate activity |

Test system: not given
Assay: not given
Details: not given

| SMILES | melting point |
| --- | --- |
| CN1CCN(c2cccc3c2OC(C(=O)Nc2ccc(N4CCOCC4)cc2)CC3)CC1 (racemic) [Example 75, racemic-8-(4-Methyl-piperazin-1-yl)-chroman-2-carboxylic acid (4-morpholin-4-yl-phenyl)-amide] | 215 to 216 °C |
| CN1CCN(c2cccc3c2OC(C(=O)Nc2ccc(N4CCOCC4)cc2)CC3=O)CC1 (racemic) [Example 78, racemic-8-(4-methyl-piperazin-1-yl)-4-oxo-chroman-2-carboxylic acid (4-morpholin-4-yl-phenyl)-amide] | 215 to 216 °C |
| CN1CCN(c2cccc3c2OC(C(=O)Nc2ccc(N4CCOCC4)cc2)CC3=O)CC1 (single isomer, unassigned) [Example 79, 8-(4-Methyl-piperazin-1-yl)-4-oxo-chroman-2-carboxylic acid (4-morpholin-4-yl-phenyl)-amide] | 216 °C (dec.) |
| CN1CCN(c2cccc3c2OC(C(=O)Nc2ccc(N4CCOCC4)cc2)CC3=O)CC1 (single isomer, unassigned) [Example 80, 8-(4-Methyl-piperazin-1-yl)-4-oxo-chroman-2-carboxylic acid (4-morpholin-4-yl-phenyl)-amide] | 215 °C (dec.) |
| CN1CCN(c2cccc3c2OC(C(=O)Nc2ccc(N4CCOCC4)cc2)CC3)CC1 (single isomer, unassigned; (+)) [Example 76, (+)-8-(4Methyl-piperazin-1-yl)-chroman-2-carboxylic acid (4-morpholin-4-yl-phenyl)-amide] | 206 to 207 °C |
| CN1CCN(c2cccc3c2OC(C(=O)Nc2ccc(N4CCOCC4)cc2)CC3)CC1 (single isomer, unassigned; (-)) [Example 77, (−)-8-(4-Methyl-piperazin-1-yl)-chroman-2-carboxylic acid (4-morpholin-4-yl-phenyl)-amide] | 205.5 to 207 °C |
| CN1CCN(c2cccc3c(=O)cc(C(=O)Nc4ccc(N5CCOCC5)cc4)oc23)CC1 [Example 1, 8-(4-methyl-1-piperazinyl)-N-[4-(4-morpholinyl)phenyl]-4-Oxo-4H-chromene-2-carboxamide] | 217 to 218 °C (dec.) |
| CN1CCN(c2cccc3c(=O)cc(C(=O)Nc4ccc(N5CCOCC5)cc4O)oc23)CC1 [Example 22, 8-(4-Methyl-piperazin-1-yl)-4-oxo-4H-chromene-2-carboxylic acid (2-hydroxy-4-morpholin-4-yl-phenyl)-amide] | 248.4 to 249.6 °C |
| CN1CCN(c2cccc3c(=O)cc(C(=O)N(C)c4ccc(N5CCOCC5)cc4)oc23)CC1 [Example 25, 8-(4-Methylpiperazin-1-yl)-4-oxo-4H-chromene-2-carboxylic acid methyl-(4-morpholin-4-yl-phenyl)amide] | 245 to 246.8 °C |
| COc1cc(N2CCN(C)CC2)c2oc(C(=O)Nc3ccc(N4CCOCC4)cc3)cc(=O)c2c1 [Example 31, 6-Methoxy-8-(4-methyl-piperazin-1-yl)-4-oxo-4H-chromene-2-carboxylic acid (4-morpholin-4-yl-phenyl)-amide] | 234 to 236 °C |
| COc1cc(N2CCN(C)CC2)c2oc(C(=O)Nc3ccc(N4CCN(C(=O)CCO)CC4)cc3)cc(=O)c2c1 [Example 68, 6-Methoxy-8-(4-methyl-piperazin-1-yl)-4-oxo-4H-chromene-2-carboxylic acid {4-[4-(3-hydroxy-propanoyl)-piperazin-1-yl]-phenyl}-amide] | 195 to 197 °C |
| CCS(=O)(=O)N1CCN(c2ccc(NC(=O)c3cc(=O)c4cc(F)cc(N5CCN(C)CC5)c4o3)cc2)CC1 [Example 71, 6-Fluoro-8-(4-methyl-piperazin-1-yl)-4-oxo-4H-chromene-2-carboxylic acid [4-(4-ethane sulfonyl-piperazin-1-yl)-phenyl]-amide] | 233 to 234 °C |
| CN1CCN(c2cc(F)cc3c(=O)cc(C(=O)Nc4ccc(N5CCN(C(=O)CCO)CC5)cc4)oc23)CC1 [Example 73, 6-Fluoro-8-(4-methyl-piperazin-1-yl)-4-oxo-4H-chromene-2-carboxylic acid {4-[4-(3-hydroxy-propanoyl)-piperazin-1-yl]-phenyl}-amide] | 195 to 199 °C |
| CCNC(=O)N1CCN(c2ccc(NC(=O)c3cc(=O)c4cc(F)cc(N5CCN(C)CC5)c4o3)cc2)CC1 [Example 81, 4-[4-({1-[6-Fluoro-8-(4-methyl-piperazin-1-yl)-4-oxo-4H-chromen-2-yl]-methanoyl}-amino)-phenyl]-piperazine-1-carboxylic acid Ethylamide] | 236 to 238 °C |
